Reference: paper PMC10321483 (Chemical Science, 2023)
“And” between values parts separate entries of the source, which are not always exact repeats. Equal entries are not always repeated. Where two headings read alike, the source gives them in different places.

Key:
[1] = set-up: method as in earlier work; details: Table S11; reported values; ref 6 (Sameshima et al., 2017); cited from earlier work
[2] = Intrinsic thiol reactivity (kchem), competition with probe 2 for L-glutathione; type: physicochemical; details: for log(kchem) probe 2 (mean ± SD): Table S11 assay validation; for kchem (apparent intrinsic thiol reactivity): Table S5, L-glutathione 500 nM, probe 2 10 µM, 15 h
[3] = molecular target: T1, LdtMt2 (Mycobacterium tuberculosis, UniProt I6Y9J2); details: 1 μM LdtMt2, denaturing acidic conditions
T1 sequence (I6Y9J2 56-408): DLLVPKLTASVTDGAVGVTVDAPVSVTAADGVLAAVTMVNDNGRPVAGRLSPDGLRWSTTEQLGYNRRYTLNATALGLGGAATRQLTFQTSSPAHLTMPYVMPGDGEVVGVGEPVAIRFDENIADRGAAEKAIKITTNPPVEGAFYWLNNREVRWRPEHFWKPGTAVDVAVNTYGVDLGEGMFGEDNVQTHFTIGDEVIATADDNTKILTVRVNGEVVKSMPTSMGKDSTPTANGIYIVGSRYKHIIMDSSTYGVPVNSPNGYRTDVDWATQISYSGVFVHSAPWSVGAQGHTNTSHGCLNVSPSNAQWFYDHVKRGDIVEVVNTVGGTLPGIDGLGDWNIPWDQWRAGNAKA
Method: LdtMt2 (1 μM) in buffer (50 mM tris, pH 7.5) was incubated with an inhibitor (100 μM, 10 μM, or 2 μM, as indicated). Mass spectrometry was performed using a RapidFire200 integrated autosampler/solid phase extraction (SPE) system (Agilent Technologies) coupled to an API40000 triple quadrupole mass spectrometer (Applied Biosystems) operating in the positive ionisation mode. Samples were taken after the specified incubation periods, loaded onto a C4 cartridge (Agilent Technologies), and eluted with organic phase (85% (v/v) acetonitrile, 15% (v/v) water, 0.1% (v/v) formic acid). The cartridge was washed with both the organic phase and an aqueous phase (water, 0.1% (v/v) formic acid). Data were analysed using MassHunter Qualitative Analysis B.07.00 (Agilent Technologies). Spectra were deconvoluted using the maximum entropy algorithm in the same programme.

[4] = system: HepG2 cells; assay: HepG2 cytotoxicity assay (CellTiter Glo); type: cell-based; details: 48 h, ATP read-out
Method: Solutions of the test compounds (250 nL per well; 11 serial dilutions of 1/3 with starting concentration 100 μM) were dispensed in tissue-culture treated black clear-bottomed 384-well plates (Greiner, cat. no. 781091) with an Echo 555 instrument. 25 μL of HepG2 (ATCC HB-8065) cells (∼3000 cells per well) grown to confluency in Eagle's Minimal Essential Medium (MEM) supplemented with 10% (v/v) heat-inactivated FBS, 1% (v/v) non-essential amino acids (NEAA), and 1% (v/v) penicillin/streptomycin were added to each well. Plates were incubated at 37 °C with 20% O2 and 5% CO2 for 48 h. The plates were then equilibrated to room temperature. ATP levels, measured with CellTiter Glo kit (Promega), were used as cell viability read-out. 25 μL of CellTiter Glo substrate dissolved in the buffer was added to each well. Plates were incubated at room temperature for 10 min and read on ViewLux (PerkinElmer) […].

[5] = system: M. tuberculosis (strain H37Rv) growth in THP1 cells; assay: Intracellular assay: Mtb H37Rv-Luc in THP-1 macrophages; type: cell-based, Mycobacterium tuberculosis; details: 5 days, extrapolated from dose-response curve
[6] = system: M. tuberculosis (strain H37Rv); assay: Extracellular assay: M. tuberculosis H37Rv in medium under replicating conditions; type: cell-based, Mycobacterium tuberculosis
[7] = molecular target: T1, LdtMt2; assay: biochemical; type: biochemical; set-up: made in house; host or cells: E. coli
[8] = molecular target: T1, LdtMt2; assay: biochemical; type: binding; set-up: made in house; host or cells: E. coli
Procedure, shortened: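 Thermal shift: 5 μM LdtMt2 preincubated 30 minutes at room temperature with 500 μM inhibitor in 50 mM tris pH 7.5, then SYPRO Orange (6×) added. Fluorescence (ex 492/em 610 nm) followed from 20 to 95 °C in 0.2 °C steps to derive Tm.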

[9] = molecular target: T2, BlaC (Mycobacterium tuberculosis, UniProt P9WKD3); assay: BlaC fluorogenic inhibition assay with FC5 (dose-response); type: biochemical; details: Table S5 HTS hits, 30 minute inhibitor pre-incubation, two independent repeats
T2 construct: made in house; host or cells: E. coli
T2 sequence (P9WKD3 35-307): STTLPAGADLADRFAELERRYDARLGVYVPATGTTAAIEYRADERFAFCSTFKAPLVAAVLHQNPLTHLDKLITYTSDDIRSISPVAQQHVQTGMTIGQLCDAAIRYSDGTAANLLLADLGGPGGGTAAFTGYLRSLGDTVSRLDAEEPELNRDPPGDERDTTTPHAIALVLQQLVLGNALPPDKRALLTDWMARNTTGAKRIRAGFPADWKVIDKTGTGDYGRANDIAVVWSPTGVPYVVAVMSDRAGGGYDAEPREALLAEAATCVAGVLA
Method: Two types of controls were used. […] In control 2, the BlaC mixture was substituted with the assay buffer. This mixture was incubated for 30 minutes at room temperature without shaking. […] Data were analysed using ActivityBase (IDBS).

[10] = molecular target: T1, LdtMt2; assay: Jump dilution assay (reversibility, koff); type: biochemical; set-up: made in house; host or cells: E. coli; details: read-out: koff (off rate of complex with LdtMt2)
Method: LdtMt2 (10 μM final concentration) was incubated with the inhibitor (100 μM final concentration) in the assay buffer (50 mM HEPES, pH 7.2, 0.01% (v/v) Triton X-100) for 2 hours at room temperature, then serially diluted 1000× with assay buffer (final LdtMt2 concentration 10 nM). 20 μL of the diluted mixture was added to a black polystyrene, flat-bottomed 384-well μ-clear plate (clear bottomed, Greiner Bio-One, part number 781096). Probe 2 (final concentration 15 μM) was added using a MultiDrop Combi dispenser (ThermoFisher Scientific). Fluorescence was measured using a PHERAstar plate reader (BMG Labtech) with λex = 480 nm and λem = 520 nm. Readings were taken every 15 s for a period of 5 minutes, using bottom optic measurements. The off rate (koff) was determined using eqn (7).7 [drawing 3] where, P = formed product; Vs = velocity of no-inhibitor control; V0 = velocity of no-enzyme control, and P0 = initial fluorescence.
The half-life of the enzyme–inhibitor complex (t1/2) was calculated using eqn (8).8 [drawing 4]

SMILES: Cc1ccc(C(=O)C=CC(=O)O)cc1C [ii]
- log(kchem) o-maleimide BODIPY (mean ± SD) [1]: 1.07 ± 0.09
- log(kchem) probe 2 (mean ± SD) [2]: 0.76 ± 0.03

SMILES: O=C(O)C=CC(=O)c1ccc(Br)cc1 [iii]
- log(kchem) o-maleimide BODIPY (mean ± SD) [1]: 1.34 ± 0.10
- log(kchem) probe 2 (mean ± SD) [2]: 0.93 ± 0.02

SMILES: N#C[s+]1c2ccccc2c2ccccc21.O=S(=O)([O-])C(F)(F)F [Compound 45, reference compound]
- covalent modification of LdtMt2 (adduct observed by SPE-MS) [3]: did not modify LdtMt2

SMILES: CCOc1ccc(C(=O)C=CC(=O)O)cc1OCC [i]
- log(kchem) o-maleimide BODIPY (mean ± SD) [1]: 0.86 ± 0.09
- log(kchem) probe 2 (mean ± SD) [2]: 0.65 ± 0.06

SMILES: O=C1C(=O)N(Cc2cccc3ccccc23)c2ccc(Br)cc21 [Compound 18]
- IC50 [4]: 42300 ± 3400 nM
- MIC50 intracellular [5]: 35.5 ± 5.4 µM and < 50 µM
- MIC50 [6]: > 100 µM
- kchem (apparent intrinsic thiol reactivity) [2]: < 0.08 M⁻¹ s⁻¹
- covalent modification of LdtMt2 (adduct observed by SPE-MS) [3]: not observed to modify LdtMt2
- LE (ligand efficiency) [7]: 0.49
- pIC50, 0 min [7]: 6.39 ± 0.07
- pIC50, 10 min [7]: 6.24 ± 0.23
- pIC50, 60 min [7]: 6.49 ± 0.35
- pIC50, 120 min [7]: 6.56 ± 0.35
- ΔTm: difference in melting point of LdtMt2 relative to unreacted LdtMt2 (43.8 °C) [8]: +2.4
- Tm: melting point of LdtMt2 after pre-incubation with the compound ([8]; pH 7.5, in °C (unit assumed)): 46.2 ± 0.00
- pIC50 BlaC [9]: < 4.0

SMILES: CCOc1ccc(CN2C(=O)C(=O)c3cc(Br)cc(C)c32)cc1OC [Compound 16]
- koff [10]: 0.0286 s⁻¹
- kchem (apparent intrinsic thiol reactivity) [2]: < 0.08 M⁻¹ s⁻¹
- LE (ligand efficiency) ([7]; Table S5, for LdtMt2): 0.45
- IC50 ([7]; Table S5 HTS hits, 30 minute inhibitor pre-incubation, two independent repeats, read-out: pIC50 LdtMt2 (converted)): 178 nM
- IC50 ([7]; Table S8, inhibitor pre-incubation time 0 min, read-out: pIC50, 0 min (converted)): 302 nM
- IC50 ([7]; Table S8, inhibitor pre-incubation time 120 min, read-out: pIC50, 120 min (converted)): 407 nM
- IC50 ([7]; pIC50, 10 min, Table S8, inhibitor pre-incubation time 10 min): 363 nM
- IC50 ([7]; pIC50, 60 min, Table S8, inhibitor pre-incubation time 60 min): 372 nM
- Tm: melting point of LdtMt2 after pre-incubation with the compound ([8]; 5 µM LdtMt2, 500 µM inhibitor, SYPRO Orange, 50 mM Tris pH 7.5): 46.8 ± 0.00 °C
- ΔTm at 500 µM ([8]; read-out: ΔTm: difference in melting point of LdtMt2 relative to unreacted LdtMt2 (43.8 °C)): 3 °C
- IC50 ([9]; pIC50 BlaC): 36300 nM
